The subject of assay [1] is PDGFB NSCs expressing either WT or K27M mutant H3.3. As to the kind of experiment: Colony formation assay of PDGFB NSCs (FIG. 2C). Type of assay: cell-based, mouse. To be noted: 2000 cells plated, colonies after 9 days.
Assay [2] relates to Ink4a−/−/Arf−/− NSCs expressing constitutive active epidermal growth factor receptor (*EGFR). Description: Cell proliferation of adult GBM model cells (FIG. 4). The assay is classed as cell-based, mouse. The note with it: inhibitor vs DMSO. From the text:
Cell proliferation of DMSO or EZH2 inhibitor treated Ink4a/Arf−/−*EGFR NSCs.
A mouse model representing adult classical subtype of GBM subtypes was investigated.

For assay [3], the system named is PDGFB NSCs expressing either WT or K27M mutant H3.3. To be noted: 3 μM inhibitor vs DMSO.
From the text: Cells were harvested and counted using Neubauer chamber every 3-4 days.
Assay [4] has as its target T1, Human PRC2 complex (EZH2, EED, SUZ12, RbAp48, AEBP2) (Homo sapiens, UniProt Q15910).
T1 construct: FLAG (N); made in house; host or cells: Sf9 insect cells
As to the kind of experiment: EZH2 methyltransferase activity within PRC2 complex, scintillation proximity assay (Example 2). Type of assay: biochemical. The note with it: determined as described in Example 2; inhibition of methyltransferase activity of EZH2 within PRC2. The procedure: Compounds can be evaluated for their ability to inhibit the methyltransferase activity of EZH2 within the PRC2 complex using the following assay. Human PRC2 complex is prepared by co-expressing each of the 5 member proteins (EZH2, EED, SUZ12, RbAp48, AEBP2) in Sf9 cells followed by co-purification. The proteins may be expressed as tagged versions, e.g. EZH2 may be expressed as FLAG-EZH2. The tag can be used for purification.
Enzyme activity is measured in a scintillation proximity assay (SPA) where a tritiated methyl group is transferred from 3H-SAM to a lysine residue on Histone H3 of a mononucleosome, purified from HeLa cells. Mononucleosomes are captured on SPA beads and the resulting signal is read on a ViewLux plate reader. SPA beads are e.g. available from Perkin Elmer, United States. This may be done as described in Garapaty-Rao et al, 2013 Identification of EZH2 and EZH1 small molecule inhibitors with selective impact on diffuse large B cell lymphoma cell growth. Chemistry and Biology 20, 1329-1339.
1. […]
1. Read the assay plates on the Viewlux Plate Reader utilizing the 613 nm emission filter with a 300 s read time. […]
Percent inhibition is calculated relative to the DMSO control for each compound concentration and the resulting values are fit using standard IC50 fitting parameters within the ABASE data fitting software package.
(In general: Scintillation proximity formats need no separation of bound from free tracer.)

The next assay deals with EZH2. To be noted: PDGFB NSCs, different concentrations for 3 days, FIG. 2A.
The subject of assay [5] is Ezh2f/f; PDGFB/H3K27M NSCs injected into the mouse pons. As to the kind of experiment: Survival of mice injected in the pons with pre-treated Ezh2f/f; PDGFB/H3K27M NSCs (FIG. 3b). The note with it: 10^5 cells pre-treated with 4-OHT vs ethanol.
From the text: Briefly, mice were anesthetized using isoflurane (1.5 L O2/minute and 2.5% isoflurane) and placed in a stereotactic device (David Kopf instruments). […] The hole in the skull was closed with bonewax (Agnthos) and the scalp was closed using clips (Agnthos). The clips were removed after one week of injection.
PDGFB/H3K27M NSCs in mice with Ezh2^f/f; CreER (Ezh2^f/f;PDGFB/H3K27M) background were generated. In these mice Ezh2 could be conditionally deleted.
The subject of assay [6] is Ezh2 expression in Ezh2f/f; PDGFB/H3K27M NSCs. As to the kind of experiment: Immunoblot of Ezh2 after 4-OHT treatment of Ezh2f/f; PDGFB/H3K27M NSCs (FIG. 3a). Type of assay: cell-based, mouse. The note with it: CreER PDGFB/H3K27M NSCs, 8 days of treatment (FIG. 3a). The procedure: Cells were trypsinized, washed once with 1× phosphate buffer saline (PBS) and lysed in TOPEX+ buffer (300 mM NaCl, 50 mM Tris-HCl pH7.5, 0.5% Triton X-100, 1% SDS, 1 mM DTT, Aprotinin, Leupeptin, 0.1 mM phenylmethanesulfonyl fluoride (PMSF) and 33.33 U/mL Benzonase (EMD-Novagen)). Protein concentrations in the cell lysates were measured by Bradford reagent (Bio-Rad). Cell lysates were separated by SDS-PAGE and transferred to nitrocellulose membrane. The antibodies used for the immunoblotting were antibodies specifically recognising H3K27me3 (C36B11, Cell Signaling), H3K27me2, p16^Ink4a, p53, H3K27M, actin, H3 and Ezh2.

For assay [7], the system named is Ezh2f/f; PDGFB/H3K27M NSCs injected into the mouse pons. As to the kind of experiment: Survival of mice bearing Ezh2f/f; PDGFB/H3K27M NSC tumours treated in vivo (FIG. 3c). To be noted: 10^4 cells injected into the pons, treatment after 3 weeks, vs oil-treated control.

pIC50: −log10 of the molar value.

T1 sequence (Q15910 whole entry): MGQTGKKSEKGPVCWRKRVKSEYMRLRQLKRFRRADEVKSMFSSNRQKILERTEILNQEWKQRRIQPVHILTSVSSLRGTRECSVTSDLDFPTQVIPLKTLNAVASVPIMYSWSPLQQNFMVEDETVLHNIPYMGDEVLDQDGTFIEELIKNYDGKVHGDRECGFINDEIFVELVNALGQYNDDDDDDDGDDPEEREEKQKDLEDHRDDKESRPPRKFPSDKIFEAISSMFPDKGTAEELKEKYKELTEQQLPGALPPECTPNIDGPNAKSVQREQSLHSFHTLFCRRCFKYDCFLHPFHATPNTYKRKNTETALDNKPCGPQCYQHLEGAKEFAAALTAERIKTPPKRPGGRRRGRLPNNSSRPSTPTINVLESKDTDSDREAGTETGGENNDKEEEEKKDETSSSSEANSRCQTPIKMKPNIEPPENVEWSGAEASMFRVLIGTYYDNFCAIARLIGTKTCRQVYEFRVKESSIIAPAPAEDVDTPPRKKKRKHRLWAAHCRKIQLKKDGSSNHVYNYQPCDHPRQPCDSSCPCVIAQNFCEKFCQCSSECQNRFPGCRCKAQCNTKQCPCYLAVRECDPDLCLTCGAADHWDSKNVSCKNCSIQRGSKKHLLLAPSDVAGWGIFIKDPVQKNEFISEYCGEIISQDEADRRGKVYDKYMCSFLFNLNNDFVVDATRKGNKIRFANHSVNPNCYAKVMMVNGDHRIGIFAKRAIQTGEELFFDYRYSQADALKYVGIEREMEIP
T1 sequence (O75530 whole entry partner): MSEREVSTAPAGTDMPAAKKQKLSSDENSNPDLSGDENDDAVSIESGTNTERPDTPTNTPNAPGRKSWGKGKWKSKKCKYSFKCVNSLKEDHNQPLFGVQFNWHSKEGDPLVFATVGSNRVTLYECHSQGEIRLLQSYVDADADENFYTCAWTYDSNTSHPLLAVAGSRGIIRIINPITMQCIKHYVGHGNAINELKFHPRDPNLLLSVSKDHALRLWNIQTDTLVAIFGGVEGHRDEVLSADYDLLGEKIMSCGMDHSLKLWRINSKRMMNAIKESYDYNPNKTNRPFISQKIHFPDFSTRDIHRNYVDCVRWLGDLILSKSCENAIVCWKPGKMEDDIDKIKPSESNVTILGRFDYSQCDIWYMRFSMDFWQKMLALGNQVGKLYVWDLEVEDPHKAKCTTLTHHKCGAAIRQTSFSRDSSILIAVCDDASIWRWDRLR
T1 sequence (Q15022 whole entry partner): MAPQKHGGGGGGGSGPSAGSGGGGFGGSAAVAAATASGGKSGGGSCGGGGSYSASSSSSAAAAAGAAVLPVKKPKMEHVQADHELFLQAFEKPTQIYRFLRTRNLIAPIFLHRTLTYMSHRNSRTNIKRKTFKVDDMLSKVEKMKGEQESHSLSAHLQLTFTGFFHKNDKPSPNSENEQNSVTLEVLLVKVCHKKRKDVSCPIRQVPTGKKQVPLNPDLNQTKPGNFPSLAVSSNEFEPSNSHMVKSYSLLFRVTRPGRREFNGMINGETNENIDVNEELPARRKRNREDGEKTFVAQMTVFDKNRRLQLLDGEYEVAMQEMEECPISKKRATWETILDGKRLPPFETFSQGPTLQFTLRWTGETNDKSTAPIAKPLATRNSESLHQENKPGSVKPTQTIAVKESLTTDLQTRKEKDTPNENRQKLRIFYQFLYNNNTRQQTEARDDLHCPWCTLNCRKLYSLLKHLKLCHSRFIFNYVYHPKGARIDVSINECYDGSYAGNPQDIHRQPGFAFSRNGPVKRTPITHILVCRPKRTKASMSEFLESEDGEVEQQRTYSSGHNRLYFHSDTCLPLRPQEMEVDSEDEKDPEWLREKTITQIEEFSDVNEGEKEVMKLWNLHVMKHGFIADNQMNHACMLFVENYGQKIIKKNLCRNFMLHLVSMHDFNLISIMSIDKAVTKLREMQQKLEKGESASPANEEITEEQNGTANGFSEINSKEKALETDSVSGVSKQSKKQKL
T1 sequence (Q09028 whole entry partner): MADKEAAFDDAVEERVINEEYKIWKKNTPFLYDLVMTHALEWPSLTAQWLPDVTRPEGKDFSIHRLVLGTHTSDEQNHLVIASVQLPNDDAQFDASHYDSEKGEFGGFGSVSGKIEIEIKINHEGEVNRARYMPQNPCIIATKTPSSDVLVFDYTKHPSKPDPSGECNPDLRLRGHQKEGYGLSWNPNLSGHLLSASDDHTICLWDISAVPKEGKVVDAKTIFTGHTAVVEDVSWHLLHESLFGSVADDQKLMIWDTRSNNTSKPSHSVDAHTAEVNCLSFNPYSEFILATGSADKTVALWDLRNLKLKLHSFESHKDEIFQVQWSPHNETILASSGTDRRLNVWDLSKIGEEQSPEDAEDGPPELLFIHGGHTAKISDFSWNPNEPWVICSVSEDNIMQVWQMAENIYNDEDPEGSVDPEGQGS
T1 sequence (Q6ZN18 1-503 partner limits assumed): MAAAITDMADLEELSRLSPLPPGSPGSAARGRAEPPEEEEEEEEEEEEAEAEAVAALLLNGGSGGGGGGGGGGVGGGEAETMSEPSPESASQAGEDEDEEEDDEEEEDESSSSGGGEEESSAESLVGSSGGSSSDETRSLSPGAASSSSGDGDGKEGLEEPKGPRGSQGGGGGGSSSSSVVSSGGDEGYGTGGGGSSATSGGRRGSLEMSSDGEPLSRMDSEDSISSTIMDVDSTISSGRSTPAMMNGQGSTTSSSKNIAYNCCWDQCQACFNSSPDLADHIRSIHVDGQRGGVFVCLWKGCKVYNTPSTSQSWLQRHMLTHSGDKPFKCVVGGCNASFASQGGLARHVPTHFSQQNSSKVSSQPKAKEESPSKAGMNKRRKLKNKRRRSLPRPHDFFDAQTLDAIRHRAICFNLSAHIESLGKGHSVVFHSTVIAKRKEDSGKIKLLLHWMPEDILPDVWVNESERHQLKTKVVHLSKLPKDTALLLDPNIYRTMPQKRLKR

In the case of `CCN(c1cc(-c2ccc(CN3CCOCC3)cc2)cc(C(=O)NCc2c(C)cc(C)[nH]c2=O)c1C)C1CCOCC1` [EPZ6438], the colonies formed entry in assay [1] was “formed fewer colonies”. The proliferation result in assay [2] is on record as “did not affect their proliferation”; in assay [3], “reduced proliferation”.
For the compound GSK343, the colonies formed entry in assay [1] is listed as “formed fewer colonies”. Moreover, the pIC50 in assay [4] was 8.30. In addition, the “EZH2 inhibition (H3K27me3 and H3K27me2 levels by immunoblot)” value with EZH2 was “potent and highly selective EZH2 inhibitors”. The proliferation result in assay [2] is “did not affect their proliferation”; in assay [3], “reduced proliferation”.
As to 4-hydroxytamoxifen [4-OHT], the survival of mice result in assay [5] is given as “significantly longer survival”. For the same compound, in assay [6], the Ezh2 expression result was “complete loss of Ezh2”.
Turning to `CC/C(=C(\c1ccccc1)c1ccc(OCCN(C)C)cc1)c1ccccc1` [Tamoxifen, tamoxifen], the survival of mice entry in assay [7] is reported as “significantly longer survival”.

By pIC50 is commonly meant the IC50 on a negative log10 scale, so that one unit is a factor of ten. Read a low pIC50 as a large IC50.

(Values after patent US20180271857A1, “TREATMENT OF CANCER BY INHIBITING EZH2 ACTIVITY” (University of Copenhagen, priority 2014, published 2018).)
